Data: PubChem BioAssay (NCI)
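GI50 marks 50% less growth. TGI: concentration producing complete growth inhibition.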

Columns and labels:
Experiment in all cases: NCI anticancer screen, dose series, 384-well format
786-0 renal = system: 786-0 renal
A498 renal = system: A498 renal
A549 NSCLC = system: A549 NSCLC
ACHN renal = system: ACHN renal
BT-549 breast = system: BT-549 breast
CAKI-1 renal = system: CAKI-1 renal
CCRF-CEM leukemia = system: CCRF-CEM leukemia
COLO 205 colon = system: COLO 205 colon
DU-145 prostate = system: DU-145 prostate
EKVX NSCLC = system: EKVX NSCLC
HCC-2998 colon = system: HCC-2998 colon
HCT-15 colon = system: HCT-15 colon
HL-60(TB) leukemia = system: HL-60(TB) leukemia
HOP-62 NSCLC = system: HOP-62 NSCLC
HOP-92 NSCLC = system: HOP-92 NSCLC
HS 578T breast = system: HS 578T breast
HT29 colon = system: HT29 colon
IGROV1 ovarian = system: IGROV1 ovarian
K-562 leukemia = system: K-562 leukemia
KM12 colon = system: KM12 colon
LOX IMVI melanoma = system: LOX IMVI melanoma
M14 melanoma = system: M14 melanoma
MALME-3M melanoma = system: MALME-3M melanoma
MCF7 breast = system: MCF7 breast
MDA-MB-231 breast = system: MDA-MB-231 breast
MDA-MB-435 melanoma = system: MDA-MB-435 melanoma
MDA-MB-468 breast = system: MDA-MB-468 breast
MOLT-4 leukemia = system: MOLT-4 leukemia
NCI-H226 lung = system: NCI-H226 lung
NCI-H23 lung = system: NCI-H23 lung
NCI-H322M lung = system: NCI-H322M lung
NCI-H460 NSCLC = system: NCI-H460 NSCLC
NCI-H522 lung = system: NCI-H522 lung
NCI/ADR-RES ovarian = system: NCI/ADR-RES ovarian
OVCAR-3 ovarian = system: OVCAR-3 ovarian
OVCAR-4 ovarian = system: OVCAR-4 ovarian
OVCAR-5 ovarian = system: OVCAR-5 ovarian
OVCAR-8 ovarian = system: OVCAR-8 ovarian
PC-3 prostate = system: PC-3 prostate
RPMI-8226 leukemia = system: RPMI-8226 leukemia
RXF 393 renal = system: RXF 393 renal
SF-268 CNS = system: SF-268 CNS
SF-295 CNS = system: SF-295 CNS
SF-539 CNS = system: SF-539 CNS
SK-MEL-28 melanoma = system: SK-MEL-28 melanoma
SK-MEL-5 melanoma = system: SK-MEL-5 melanoma
SK-OV-3 ovarian = system: SK-OV-3 ovarian
SN12C renal = system: SN12C renal
SNB-19 CNS = system: SNB-19 CNS
SNB-75 CNS = system: SNB-75 CNS
SR leukemia = system: SR leukemia
SW-620 colon = system: SW-620 colon
T-47D breast = system: T-47D breast
TK-10 renal = system: TK-10 renal
UACC-257 melanoma = system: UACC-257 melanoma
UACC-62 melanoma = system: UACC-62 melanoma
UO-31 renal = system: UO-31 renal

## C=CC(=O)N[C@H]1C=C(C)c2c(-c3cnc4ccccc4c3)c3c(N)ncnc3n2C1
786-0 renal
  GI50: 12.7 µM
  TGI: 28.8 µM
A498 renal
  GI50: 2.11 µM
  TGI: 20.1 µM
A549 NSCLC
  GI50: 11.1 µM
  TGI: 30.2 µM
ACHN renal
  GI50: 0.378 µM
  TGI: 18 µM
BT-549 breast
  GI50: 16.8 µM
  TGI: 35.7 µM
CAKI-1 renal
  GI50: 3.49 µM
  TGI: 21.3 µM
CCRF-CEM leukemia
  GI50: 14.9 µM
  TGI: 28.2 µM
COLO 205 colon
  GI50: 26.2 µM
  TGI: 70.4 µM
DU-145 prostate
  GI50: 14.1 µM
  TGI: 44.9 µM
EKVX NSCLC
  GI50: 0.312 µM
  TGI: 25.5 µM
HCC-2998 colon
  GI50: 19.3 µM
  TGI: 35.1 µM
HCT-15 colon
  GI50: 25.2 µM
  TGI: 82 µM
HL-60(TB) leukemia
  GI50: 26.7 µM
  TGI: 41.6 µM
HOP-62 NSCLC
  GI50: 17.1 µM
  TGI: 76 µM
HOP-92 NSCLC
  GI50: 10.2 µM
  TGI: 33.1 µM
HS 578T breast
  GI50: 12.8 µM
  TGI: 26.4 µM
HT29 colon
  GI50: 17.5 µM
  TGI: 58.5 µM
IGROV1 ovarian
  GI50: 0.683 µM
  TGI: 8.36 µM
K-562 leukemia
  GI50: 23.9 µM
  TGI: 80.6 µM
KM12 colon
  GI50: 18.8 µM
  TGI: 36.3 µM
LOX IMVI melanoma
  GI50: 14.7 µM
  TGI: 28.1 µM
M14 melanoma
  GI50: 13.2 µM
  TGI: 31.9 µM
MALME-3M melanoma
  GI50: 11.7 µM
  TGI: 24.1 µM
MCF7 breast
  GI50: 19.7 µM
  TGI: > 100 µM
MDA-MB-231 breast
  GI50: 13.7 µM
  TGI: 35.4 µM
MDA-MB-435 melanoma
  GI50: 31 µM
  TGI: 87 µM
MDA-MB-468 breast
  GI50: 0.0243 µM
  TGI: 0.0646 µM
MOLT-4 leukemia
  GI50: 5.47 µM
  TGI: 17.5 µM
NCI-H226 lung
  GI50: 5.39 µM
  TGI: 26.3 µM
NCI-H23 lung
  GI50: 18.2 µM
  TGI: 40.6 µM
NCI-H322M lung
  GI50: 0.109 µM
  TGI: 16.4 µM
NCI-H460 NSCLC
  GI50: 14.8 µM
  TGI: 30 µM
NCI-H522 lung
  GI50: 0.242 µM
  TGI: 9.32 µM
NCI/ADR-RES ovarian
  GI50: 34.1 µM
  TGI: > 100 µM
OVCAR-3 ovarian
  GI50: 7.32 µM
  TGI: 24.9 µM
OVCAR-4 ovarian
  GI50: 16.2 µM
  TGI: 65.5 µM
OVCAR-5 ovarian
  GI50: 26.2 µM
  TGI: 74.1 µM
OVCAR-8 ovarian
  GI50: 15.8 µM
  TGI: 35 µM
PC-3 prostate
  GI50: 34.1 µM
  TGI: 98.8 µM
RPMI-8226 leukemia
  GI50: 10 µM
  TGI: 22.1 µM
RXF 393 renal
  GI50: 10 µM
  TGI: 27.7 µM
SF-268 CNS
  GI50: 15.1 µM
  TGI: 45.6 µM
SF-295 CNS
  GI50: 29.5 µM
  TGI: > 100 µM
SF-539 CNS
  GI50: 15.1 µM
  TGI: 29.3 µM
SK-MEL-28 melanoma
  GI50: 14.2 µM
  TGI: 46.2 µM
SK-MEL-5 melanoma
  GI50: 13.2 µM
  TGI: 26 µM
SK-OV-3 ovarian
  GI50: 1.61 µM
  TGI: 15.1 µM
SN12C renal
  GI50: 15.6 µM
  TGI: 63.9 µM
SNB-19 CNS
  GI50: 27 µM
  TGI: 73.3 µM
SNB-75 CNS
  GI50: 17.6 µM
  TGI: 45.9 µM
SR leukemia
  GI50: 2.45 µM
  TGI: 10.9 µM
SW-620 colon
  GI50: 28.5 µM
  TGI: 61.6 µM
T-47D breast
  GI50: 11.5 µM
  TGI: 82 µM
TK-10 renal
  GI50: 0.228 µM
  TGI: 10.6 µM
UACC-257 melanoma
  GI50: 18.9 µM
  TGI: 48 µM
UACC-62 melanoma
  GI50: 6 µM
  TGI: 18.9 µM
UO-31 renal
  GI50: 12.2 µM
  TGI: > 100 µM
